Here are results for seven molecules from ChEMBL document CHEMBL3046080, “Synthesis of imidazole-derived steroidal hybrids as potent aromatase inhibitors” (Med Chem Res, 2013).

One series concerns the target T1, Aromatase (Homo sapiens, UniProt P11511).
T1 sequence (P11511 whole entry): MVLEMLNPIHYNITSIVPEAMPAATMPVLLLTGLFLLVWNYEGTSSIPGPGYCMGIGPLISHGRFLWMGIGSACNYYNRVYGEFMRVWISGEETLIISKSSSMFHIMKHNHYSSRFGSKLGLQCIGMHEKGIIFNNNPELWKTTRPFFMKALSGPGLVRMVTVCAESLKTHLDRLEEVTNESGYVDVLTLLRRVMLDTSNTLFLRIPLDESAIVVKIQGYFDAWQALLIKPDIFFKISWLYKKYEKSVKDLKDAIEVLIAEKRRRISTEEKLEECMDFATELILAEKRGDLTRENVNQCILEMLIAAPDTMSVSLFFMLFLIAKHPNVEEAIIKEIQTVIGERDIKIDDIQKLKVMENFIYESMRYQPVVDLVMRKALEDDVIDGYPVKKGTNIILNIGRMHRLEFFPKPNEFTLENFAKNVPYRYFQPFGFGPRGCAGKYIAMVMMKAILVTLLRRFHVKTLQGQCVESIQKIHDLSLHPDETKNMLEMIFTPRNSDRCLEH
The arrangement: species or system Placenta, Microsome.

Series [1] deals with T2, aromatase (CYP19) (Homo sapiens, UniProt P11511).
T2 sequence (P11511 whole entry): T1 sequence (P11511 whole entry)
Description: Inhibition of aromatase in Homo sapiens (human) placental microsome assessed as tritiated H2O release from [1-beta-3H] androstenedione substrate at 36 uM preincubated with substrate for 5 min prior to enzyme addition measured after 20 min by beta-scintillation counting analysis. Further details: species or system Placenta. As to conditions: placental microsomes, probe [1-beta-3H] androstenedione.

Series [2] addresses T2, aromatase (CYP19). Description: Inhibition of aromatase in Homo sapiens (human) placental microsome assessed as tritiated H2O release from [1-beta-3H] androstenedione substrate at 5 uM preincubated with substrate for 5 min prior to enzyme addition measured after 20 min by beta-scintillation counting analysis. The arrangement: species or system Placenta. As to conditions: placental microsomes, probe [1-beta-3H] androstenedione.

Regarding `C[C@]12CCC(=O)C=C1CC[C@@H]1[C@@H]2CC[C@]2(C)C(=O)/C(=C/c3ccc(OCCCn4ccnc4)cc3)C[C@@H]12`, the 50% inhibitory concentration (IC50) on Aromatase was determined as 11.9 µM.
In turn, `C[C@]12CC[C@H]3[C@@H](CC=C4C[C@@H](O)CC[C@@]43C)[C@@H]1C/C(=C\c1cccc(OCCCn3ccnc3)c1)[C@@H]2O` registered a half-maximal inhibitory concentration (IC50) against Aromatase of 9.1 µM.
In the case of `CC(=O)O[C@H]1CC[C@@]2(C)C(=CC[C@H]3[C@@H]4C/C(=C\c5cccc(OCCCn6ccnc6)c5)[C@H](OC(C)=O)[C@@]4(C)CC[C@@H]32)C1`, the inhibition at 20 min, 36 µM on aromatase (CYP19) [1] came to 34%.
In the case of `C[C@]12CC[C@H](O)CC1=CC[C@@H]1[C@@H]2CC[C@]2(C)C(=O)/C(=C/c3ccc(OCCCn4ccnc4)cc3)C[C@@H]12`, the inhibition at 20 min, 5 µM on aromatase (CYP19) [2] was 4.1%.
`CC(=O)O[C@H]1CC[C@@]2(C)C(=CC[C@@H]3[C@@H]2CC[C@]2(C)C(=O)/C(=C/c4cccc(OCCCn5ccnc5)c4)C[C@@H]32)C1`: on aromatase (CYP19) [1], the inhibition at 20 min, 36 µM was 38%.
Consider `C[C@]12CC[C@H](O)CC1=CC[C@@H]1[C@@H]2CC[C@]2(C)C(=O)/C(=C/c3cccc(OCCCn4ccnc4)c3)C[C@@H]12`, for which, at aromatase (CYP19) [1], the inhibition at 20 min, 36 µM stood at 34%.
As to `C[C@]12CC[C@H](O)CC1=CC[C@@H]1[C@@H]2CC[C@]2(C)C(=O)/C(=C/c3ccc(OCCCCl)cc3)C[C@@H]12`, the inhibition at 20 min, 5 µM on aromatase (CYP19) [2] was 0.2%.
